pIC50: −log10 of the molar value.

T1 sequence (P13612 34-1032): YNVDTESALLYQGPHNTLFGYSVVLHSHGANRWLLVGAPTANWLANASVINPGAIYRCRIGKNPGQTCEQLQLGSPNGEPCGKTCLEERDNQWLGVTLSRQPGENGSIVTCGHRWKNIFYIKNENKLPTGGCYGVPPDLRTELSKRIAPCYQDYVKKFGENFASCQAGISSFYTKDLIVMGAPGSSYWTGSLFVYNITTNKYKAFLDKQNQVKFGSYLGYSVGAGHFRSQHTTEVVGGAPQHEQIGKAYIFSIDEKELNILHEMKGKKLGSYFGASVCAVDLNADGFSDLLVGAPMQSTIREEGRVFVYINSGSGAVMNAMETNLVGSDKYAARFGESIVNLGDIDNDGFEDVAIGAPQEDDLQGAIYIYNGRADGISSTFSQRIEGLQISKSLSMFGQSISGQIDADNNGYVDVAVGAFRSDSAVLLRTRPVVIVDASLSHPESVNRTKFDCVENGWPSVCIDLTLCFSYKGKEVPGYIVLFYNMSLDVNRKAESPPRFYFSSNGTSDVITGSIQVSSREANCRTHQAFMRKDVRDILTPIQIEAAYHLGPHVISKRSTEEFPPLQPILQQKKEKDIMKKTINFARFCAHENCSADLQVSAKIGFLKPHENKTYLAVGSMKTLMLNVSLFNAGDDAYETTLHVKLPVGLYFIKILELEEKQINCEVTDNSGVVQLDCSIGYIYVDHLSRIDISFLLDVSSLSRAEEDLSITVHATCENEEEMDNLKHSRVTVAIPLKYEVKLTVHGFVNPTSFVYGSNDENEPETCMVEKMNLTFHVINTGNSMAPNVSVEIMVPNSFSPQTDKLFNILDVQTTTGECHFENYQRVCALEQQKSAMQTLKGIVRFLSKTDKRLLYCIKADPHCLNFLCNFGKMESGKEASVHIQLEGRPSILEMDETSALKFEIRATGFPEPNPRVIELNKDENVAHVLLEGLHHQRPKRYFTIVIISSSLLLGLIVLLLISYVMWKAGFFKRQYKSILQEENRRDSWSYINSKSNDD
T1 sequence (P05556 21-798): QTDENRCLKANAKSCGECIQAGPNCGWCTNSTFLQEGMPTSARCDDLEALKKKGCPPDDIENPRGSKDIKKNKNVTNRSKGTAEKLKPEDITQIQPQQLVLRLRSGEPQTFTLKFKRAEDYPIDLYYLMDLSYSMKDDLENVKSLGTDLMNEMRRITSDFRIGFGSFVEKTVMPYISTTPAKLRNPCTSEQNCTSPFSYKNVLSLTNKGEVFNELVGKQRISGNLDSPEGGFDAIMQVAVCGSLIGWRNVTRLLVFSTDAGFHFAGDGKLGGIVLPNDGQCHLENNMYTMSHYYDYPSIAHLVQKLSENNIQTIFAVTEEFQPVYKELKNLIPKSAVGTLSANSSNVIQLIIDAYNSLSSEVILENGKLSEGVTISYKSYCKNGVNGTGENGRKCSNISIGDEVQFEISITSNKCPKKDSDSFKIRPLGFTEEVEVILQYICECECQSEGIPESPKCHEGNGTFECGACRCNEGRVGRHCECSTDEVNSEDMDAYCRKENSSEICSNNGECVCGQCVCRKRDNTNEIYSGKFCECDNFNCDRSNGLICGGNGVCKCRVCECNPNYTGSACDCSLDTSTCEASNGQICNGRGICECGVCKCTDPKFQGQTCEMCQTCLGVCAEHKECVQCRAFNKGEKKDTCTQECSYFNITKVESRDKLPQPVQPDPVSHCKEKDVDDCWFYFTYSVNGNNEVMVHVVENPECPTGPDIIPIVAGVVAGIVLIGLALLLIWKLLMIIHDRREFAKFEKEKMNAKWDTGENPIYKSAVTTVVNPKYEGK

The assay concerns the target T1, interaction between VCAM-1 and VLA-4 (Homo sapiens, UniProt P05556+P13612).
T1 construct: supplied in their natural form as surface molecules on human U937 cells; host or cells: U937 cells carry endogenous VLA-4; The partner hVCAM-1(1-3)-IgG was made in house in transfected COS cells (ATCC CRL1651) and used as culture supernatant
The experiment in a line: U937/VCAM-1 cell adhesion test (adhesion of U937 cells to hVCAM-1(1-3)-IgG). It is filed as cell-based. Conditions: concentration leading to 50% inhibition of adhesion of human U937 cells (ATCC CRL 1593) to hVCAM-1(1-3)-IgG. From the text: The test method used for the activity of the compounds of the formula I on the interaction between VCAM-1 and VLA-4 is the assay described below which is specific for this interaction. The cellular binding components, i.e., the VLA-4 integrins, are supplied in their natural form as surface molecules on human U937 cells (ATCC CRL 1593). which belong to the leucocytes group. The specific binding components used are genetically engineered recombinant soluble fusion proteins, consisting of the extracytoplasmatic domain of human VCAM-1 and the constant region of a human immunoglobulin of the subclass IgG1.
Assay for the Measurement of the Adhesion of U937 Cells (ATCC CRL 1593) to hVCAM-1(1-3)-IgG
1. Preparation of Human VCAM-1 (1-3)-IgG and Human CD4-IgG
A genetic construct for the expression of the extracellular domain of human VCAM-1, associated with the genetic sequence of the heavy chain of human immunoglobulin IgG1 (hinge, CH2 and CH3 regions), from Dr. Brian Seed, Massachusetts General Hospital. Boston, USA was employed (cf. Damle and Aruffo, Proc. Natl. Acad. Sci. USA 1991, 88, 6403-6407). The soluble fusion protein hVCAM-1(1-3)-IgG contained the three amino-terminal extracellular immunoglobulin-like domains of human VCAM-1 (Damle and Aruffo, Proc. Natl. Acad. Sci. USA 1991, 88, 6403-6407). CD4-IgG (Zettimeissl et al., DNA and Cell Biology 1990, 9, 347) served as a fusion protein for negative controls. The recombinant proteins were expressed as soluble proteins after DEAE/dextran-mediated DNA transfection in COS cells (ATCC CRL1651) according to standard procedures (Ausubel et al., Current Protocols in Molecular Biology, John Wiley & Sons, Inc., 1994).
2. Assay for the Measurement of the Adhesion of U937 Cells to hVCAM-1 (1-3)-IgG
2.1 96-well microtiter test plates (Nunc Maxisorb) were incubated at room temperature for 1 hour with 100 μl/well of a goat-anti-human IgG antibody solution (10 μg/ml in 50 mM tris, pH 9.5). After removal of the antibody solution, washing was carried out once with PBS.
2.2 150 μl/well of a blocking buffer (1% BSA in PBS) were incubated on the plates at room temperature for 0.5 hour. After removal of the blocking buffer, washing was carried out once with PBS.
2.3 100 μl per well of a cell culture supernatant of transfected COS cells were incubated on the plates at room temperature for 1.5 hours. The COS cells were transfected with a plasmid which codes for the three N-terminal immunoglobulin-like domains of VCAM-1, coupled to the Fc part of human IgG1 (hVCAM-1 (1-3)-IgG). The content of hVCAM-1 (1-3)-IgG was about 0.5-1 μg/ml. After removal of the culture supernatant, washing was carried out once with PBS.
2.4 The plates were incubated at room temperature for 20 minutes with 100 μl/well of Fc receptor blocking buffer (1 mg/ml of γ-globulin, 100 mM NaCl, 100 μM MgCl2, 100 μM MnCl2, 100 μM CaCl2, 1 mg/ml of BSA in 50 mM HEPES, pH 7.5). After removal of the Fc receptor blocking buffer, washing was carried out once with PBS.
2.5 20 μl of binding buffer (100 mM NaCl, 100 μM MgCl2, 100 μM MnCl2, 100 μM CaCl2, 1 mg/ml of BSA in 50 mM HEPES, pH 7.5) were initially introduced, and the substances to be tested were added in 10 μl of binding buffer and incubated for 20 minutes. The controls used were antibodies against VCAM-1 (BBT, No. BBA6) and against VLA-4 (immunotech, No. 0764).
2.6 U937 cells were incubated in Fc receptor blocking buffer for 20 minutes and then added by pipette in a concentration of 1×10^6/ml and in an amount of 100 μl per well ([…]).
2.7 The plates were slowly immersed at an angle of 45° in stop buffer (100 mM NaCl, 100 μM MgCl2, 100 μM MnCl2, 100 μM CaCl2 in 25 mM tris, pH 7.5) and shaken off. The process was repeated.
2.8 50 μl/well of a dye solution (16.7 μg/ml of Hoechst Dye 33258, 4% formaldehyde, 0.5% triton X-100 in PBS) were then incubated on the plates for 15 minutes. […]
In turn, `CC(C)C[C@@H](C(=O)N[C@@H](CC(=O)O)C(=O)N[C@H](C(=O)O)c1ccccc1)N1C(=O)N(Cc2ccc(NC(=O)Nc3ccccc3C(F)(F)F)cc2)C(C)(C)C1=O` [Example 68] had a pIC50 of 6.52. `CC(C)C[C@@H](C(=O)N[C@@H](CC(=O)O)C(=O)N[C@H](C(=O)O)c1ccccc1)N1C(=O)N(Cc2ccc(NC(=O)Nc3ccccc3F)cc2)C(C)(C)C1=O` [Example 67] gave a pIC50 of 8.64.

In turn, `Cc1ccccc1NC(=O)Nc1ccc(CN2C(=O)N([C@@H](CC(C)C)C(=O)N[C@@H](CC(=O)O)C(=O)N[C@H](C(=O)N3CCC[C@H]3C(=O)O)C(C)C)C(=O)C2(C)C)cc1` [Example 133, ((S)-2-(4,4-Dimethyl-3-(4-(3-(2-methylphenyl)ureido)benzyl)-2,5-dioxoimidazolidin-1-yl)-2-(2-methylpropyl)acetyl)-L-aspartyl-L-valyl-L-proline] gave a pIC50 of 8.82. This pIC50 and that of the molecule before are within 0.2 log units of each other. `CC(C)C[C@@H](C(=O)N[C@H](C)CC(=O)O)N1C(=O)N(Cc2ccc(NC(=O)Nc3ccccc3)cc2)C(C)(C)C1=O` [Example 6, (R)-3-((S)-2-(4,4-Dimethyl-3-(4-(3-phenylureido)benzyl)2,5-dioxoimidazolidin-1-yl)-2-(2-methylpropyl)acetylamino)-3-methylpropionic Acid] gave a pIC50 of 7.52.

Turning to `Cc1ccccc1NC(=O)Nc1ccc(CN2CC(=O)N(CC(=O)N[C@H](C)CC(=O)O)C2=O)cc1` [Example 26, (R)-3-(2-(3-(4-(3-(2-Methylphenyl)ureido)benzyl)-2,5-dioxoimidazolidin-1-yl)-acetylamino)-3-methylpropionic Acid], the pIC50 is 5.54. For `COc1ccc([C@H](CC(=O)O)NC(=O)[C@H](CC(C)C)N2C(=O)N(Cc3ccc(NC(=O)Nc4ccccc4C)cc3)C(C)(C)C2=O)c(OC)c1` [Example 188] the value was 8.80; for `COc1ccc(C(CC(=O)O)NC(=O)C(CC(C)C)N2C(=O)N(Cc3ccc(NC(=O)Nc4ccccc4C)cc3)C(C)(c3ccccc3)C2=O)cc1OC` (centres unmarked) [Example 190], 8.10; for `Cc1ccccc1NC(=O)Nc1ccc(CN2C(=O)N([C@@H](CC(C)C)C(=O)N[C@@H](CC(=O)O)C(=O)N[C@H](C(=O)O)c3ccccc3)C(=O)C2(C)C)cc1` [Example 47, ((S)-2-(4,4-Dimethyl-3-(4-(3-(2-methylphenyl)ureido)benzyl)-2,5-dioxoimidazolidin-1-yl)-2-(2-methylpropyl)acetyl)-L-aspartyl-L-phenylglycine], 9.07.

For the molecule `Cc1ccccc1NC(=O)Nc1ccc(CN2C(=O)N([C@@H](CC(C)C)C(=O)N[C@@H](CC(=O)O)C(=O)O)C(=O)C2(C)C)cc1` [Example 27, ((S)-2-(4,4Dimethyl-3-(4-(3-(2-methylphenyl)ureido)benzyl)-2,5-dioxoimidazolidin-1-yl)-2-(2-methylpropyl)acetyl)-L-aspartic Acid], the pIC50 is 7.57. This pIC50 is 1.50 log units lower than that of the molecule before.

In the case of `CCc1cccc(C)c1NC(=O)Nc1ccc(CN2C(=O)N(CC(=O)N[C@@H](CC(=O)O)c3ccccc3)C(=O)C2(C)C)cc1` [Example 41], the pIC50 is 5.83. Molecule `Cc1ccccc1NC(=O)Nc1ccc(CN2C(=O)N([C@@H](CC(C)C)C(=O)NCCC(=O)O)C(=O)C2(C)C)cc1` [Example 16, 3-((S)-2-(4,4-Dimethyl-3-(4-(3-(2-methylphenyl)ureido)benzyl)-2,5-dioxoimidazolidin-1-yl)-2-(2-methylpropyl)acetylamino)propionic Acid] gave a pIC50 of 7.26.

Broadly, the pIC50 is the negative decadic logarithm of the IC50, by convention in mol/L. Read a low pIC50 as a high IC50.
